Measured values: patent publication EP0264038A1, “Cytostatics containing glycidyl groups” (Henkel Kommanditgesellschaft auf Aktien, priority 1986, dated 1988)

Tested on: Tumorart P 388 (Leukämie)
Experiment: Cytostatic activity: survival of mice with i.p. implanted P 388 leukemia (NCI protocol 1200)
Type: in vivo, Mäusen
Settings: 9-day treatment, P 388 set i.p. with 10⁶ Zellen/Maus, untreated mean survival 10 days
Text: Die nachfolgenden Versuche wurden durchgeführt nach Testvorschriften des National Cancer Institute Bethesda, Maryland 200014, veröffentlicht in "Cancer Chemotherapy Reports" Part. 3, Sept. 1972, Vol. 3, Nr. 2.
Die Substanz wurde als wäßrige 1 %ige Injektionslösung unmittelbar vor der Applikation frisch hergestellt.
Bei Mäusen wurden gemäß Protokoll 1200 (S. 91 c) die Tumorart P 388 (Leukämie) i.p. mit 10⁶ Zellen/Maus gesetzt. Die unbehandelten Tiere hatten eine mittlere Überlebensdauer von 10 Tagen.
Mit den behandelten Testtieren, die einer 9-tägigen i.p. Behandlung mit der in Tabelle 1 angegebenen Dosis unterworfen wurden, wurde eine signifikante Verlängerung der Lebensdauer gegenüber der mittleren Überlebensdauer der nicht mit dem Wirkstoff behandelten Tiere erzielt. Die Verlängerungsrate T/C in Abhängigkeit von der Dosierung des Wirkstoffes ist nachtstehend tabellarisch zusammengestellt.

O=P(CC1CO1)(CC1CO1)CC1CO1 (stereo not drawn) [Triglycidylphosphinoxid]
Verlängerungsrate T/C in % (Dosis 15 mg/kg): 243% | Verlängerungsrate T/C in % (Dosis 3,75 mg/kg): 163% | Verlängerungsrate T/C in % (Dosis 7,5 mg/kg): 176%
